Data as given in the supplement of paper PMC10307832.

Compound: CN1CCN(CC1)C2=CC(=C(C=C2)NC3=NC=C4C(=N3)N(C5=CC=CC=C5C(=O)N4C)C)OC [XMD8-85] + CC(=O)Nc1cccc(-n2c(=O)n(C3CC3)c(=O)c3c(Nc4ccc(I)cc4F)n(C)c(=O)c(C)c32)c1 [Trametinib] (partner 0.02 µM)
Test: relative viability (nuclei count vs DMSO), 5 days (fraction); higher = more cells survive
Conditions: first compound 8 µM
Outline: (§1)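 Relative viability equals treated-well nuclei counts divided by vehicle-well nuclei counts. Counts came from 4× images of lung cancer cell lines grown in 1536-well plates for 5 days after pin-tool dosing on the day after seeding. Dosing used one drug alone or a fixed anchor-drug dose plus five library-drug doses (not always all listed) in √10 steps, and values are medians of duplicate plates.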

Point of comparison: NCI-H2126, relative viability 0.398. Against it:
- NCI-H2347 — lower, 0.286
- NCI-H2405 — higher, 0.628
- NCI-H3122 — lower, 0.283

Compound: O=C(O)C(Cc1ccccc1[N+](=O)[O-])=NNc1nc(-c2ccc(Cl)c(Cl)c2)cs1 (mixture of isomers) [4EGI-1] + C[C@@H](Oc1cc(-c2cnn(C3CCNCC3)c2)cnc1N)c1c(Cl)ccc(F)c1Cl [Crizotinib] (partner 1 µM)
Test: as above
Conditions: first compound 0.5 µM
Outline: as §1

Point of comparison: NCI-H1734, relative viability 0.817. Against it:
- LOU-NH91 — lower, 0.788
- LU99A — lower, 0.657
- LXF-289 — higher, 0.889
- NCI-H23 — lower, 0.592
- NCI-H322M — higher, 0.947
- NCI-H441 — higher, 0.968
- NCI-H460 — higher, 1.2
- NCI-H520 — higher, 0.963
- NCI-H596 — higher, 1.15
- NCI-H647 — higher, 1.05
- NCI-H650 — higher, 0.847
- NCI-H661 — higher, 0.903
- NCI-H727 — higher, 1.7
- NCI-H838 — higher, 0.843
- NCI-H1355 — higher, 1.18
- NCI-H1437 — higher, 0.931
- NCI-H1650 — higher, 1.03
- NCI-H1651 — higher, 0.853
- NCI-H1666 — higher, 1.12
- NCI-H1755 — higher, 0.854
- NCI-H1915 — higher, 0.924
- NCI-H1975 — higher, 0.951
- NCI-H1993 — higher, 0.943
- NCI-H2009 — higher, 1.12
- NCI-H2023 — lower, 0.766
- NCI-H2085 — higher, 0.916
- NCI-H2087 — higher, 0.896
- NCI-H2126 — higher, 1.03
- NCI-H2347 — higher, 0.841
- NCI-H2405 — higher, 0.865
- NCI-H3122 — lower, 0.274

Same assay, conditions: first compound 1.581 µM

Point of comparison: NCI-H2405, relative viability 0.747. Against it:
- LXF-289 — higher, 0.803
- NCI-H322M — higher, 0.815
- NCI-H441 — lower, 0.472
- NCI-H520 — higher, 0.868
- NCI-H596 — higher, 0.846
- NCI-H647 — higher, 1.05
- NCI-H727 — higher, 0.926
- NCI-H1355 — higher, 0.952
- NCI-H1437 — higher, 0.9
- NCI-H1651 — higher, 0.823
- NCI-H1666 — higher, 1.03
- NCI-H1734 — lower, 0.695
- NCI-H1755 — higher, 0.824
- NCI-H1915 — lower, 0.62
- NCI-H1975 — higher, 0.889
- NCI-H1993 — higher, 0.776
- NCI-H2009 — higher, 1.05
- NCI-H2085 — higher, 0.901
- NCI-H2087 — higher, 0.754
- NCI-H2126 — higher, 1.05
- NCI-H2347 — lower, 0.667
- NCI-H3122 — lower, 0.262

Same assay, conditions: first compound 5 µM

Point of comparison: NCI-H441, relative viability 0.72. Against it:
- LOU-NH91 — the same, 0.72
- LU99A — lower, 0.677
- LXF-289 — higher, 0.817
- NCI-H23 — lower, 0.654
- NCI-H322M — higher, 1.02
- NCI-H460 — higher, 1.02
- NCI-H520 — higher, 1.02
- NCI-H596 — higher, 1.13
- NCI-H647 — higher, 1.16
- NCI-H650 — higher, 0.811
- NCI-H661 — higher, 0.954
- NCI-H727 — lower, 0.716
- NCI-H838 — higher, 0.905
- NCI-H1355 — higher, 1.03
- NCI-H1437 — higher, 0.77
- NCI-H1650 — higher, 0.888
- NCI-H1651 — higher, 0.911
- NCI-H1666 — higher, 1.19
- NCI-H1734 — the same, 0.72
- NCI-H1755 — higher, 0.875
- NCI-H1915 — higher, 0.847
- NCI-H1975 — higher, 0.939
- NCI-H1993 — higher, 0.92
- NCI-H2009 — higher, 1.06
- NCI-H2023 — lower, 0.637
- NCI-H2085 — higher, 0.86
- NCI-H2087 — higher, 0.811
- NCI-H2126 — higher, 1.03
- NCI-H2347 — higher, 0.753
- NCI-H2405 — higher, 0.909
- NCI-H3122 — lower, 0.281

Same assay, conditions: first compound 15.81 µM

Point of comparison: NCI-H1437, relative viability 0.837. Against it:
- LOU-NH91 — lower, 0.508
- LU99A — lower, 0.463
- LXF-289 — lower, 0.672
- NCI-H23 — lower, 0.501
- NCI-H322M — lower, 0.823
- NCI-H441 — lower, 0.461
- NCI-H460 — lower, 0.517
- NCI-H520 — lower, 0.642
- NCI-H596 — higher, 0.878
- NCI-H647 — lower, 0.656
- NCI-H650 — lower, 0.596
- NCI-H661 — higher, 0.903
- NCI-H727 — lower, 0.588
- NCI-H838 — lower, 0.706
- NCI-H1355 — lower, 0.779
- NCI-H1650 — lower, 0.547
- NCI-H1651 — lower, 0.803
- NCI-H1666 — lower, 0.632
- NCI-H1734 — lower, 0.605
- NCI-H1755 — lower, 0.836
- NCI-H1915 — higher, 0.907
- NCI-H1975 — higher, 0.972
- NCI-H1993 — lower, 0.629
- NCI-H2009 — higher, 0.988
- NCI-H2023 — lower, 0.442
- NCI-H2085 — lower, 0.784
- NCI-H2087 — lower, 0.643
- NCI-H2126 — higher, 1.03
- NCI-H2347 — lower, 0.567
- NCI-H2405 — higher, 0.896
- NCI-H3122 — lower, 0.24

Same assay, conditions: first compound 50 µM

Point of comparison: NCI-H322M, relative viability 1.02. Against it:
- LOU-NH91 — lower, 0.55
- LU99A — lower, 0.215
- LXF-289 — lower, 0.332
- NCI-H23 — lower, 0.481
- NCI-H441 — lower, 0.213
- NCI-H460 — lower, 0.0403
- NCI-H520 — lower, 0.648
- NCI-H596 — lower, 0.557
- NCI-H647 — lower, 0.155
- NCI-H650 — lower, 0.59
- NCI-H661 — lower, 0.882
- NCI-H727 — lower, 0.343
- NCI-H838 — lower, 0.378
- NCI-H1355 — lower, 0.748
- NCI-H1437 — lower, 0.315
- NCI-H1650 — lower, 0.246
- NCI-H1651 — lower, 0.836
- NCI-H1666 — lower, 0.253
- NCI-H1734 — lower, 0.437
- NCI-H1755 — lower, 0.318
- NCI-H1915 — lower, 0.477
- NCI-H1975 — lower, 0.636
- NCI-H1993 — lower, 0.688
- NCI-H2009 — lower, 0.247
- NCI-H2023 — lower, 0.302
- NCI-H2085 — lower, 0.578
- NCI-H2087 — lower, 0.478
- NCI-H2126 — lower, 0.777
- NCI-H2347 — lower, 0.556
- NCI-H2405 — lower, 0.854
- NCI-H3122 — lower, 0.221
